Data taken from PubChem BioAssay (NCI).
“And” between values parts separate entries of the source, which are not always exact repeats. Identical values can stand only once.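 How tested: cells in 96-well plates exposed to compound for 48 hours at five concentrations. At the GI50, growth is halved. TGI marks complete inhibition of growth.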

Columns and labels:
Experiment in all cases: NCI-60 cell line screen, 48 h
SNB-75 CNS = system: SNB-75 CNS
MCF7 breast = system: MCF7 breast
OVCAR-3 ovarian = system: OVCAR-3 ovarian
HT29 colon = system: HT29 colon
IGROV1 ovarian = system: IGROV1 ovarian
UACC-257 melanoma = system: UACC-257 melanoma
SK-OV-3 ovarian = system: SK-OV-3 ovarian
LOX IMVI melanoma = system: LOX IMVI melanoma
OVCAR-4 ovarian = system: OVCAR-4 ovarian
SF-295 CNS = system: SF-295 CNS
UO-31 renal = system: UO-31 renal
SW-620 colon = system: SW-620 colon
OVCAR-8 ovarian = system: OVCAR-8 ovarian
NCI-H226 lung = system: NCI-H226 lung
EKVX NSCLC = system: EKVX NSCLC
BT-549 breast = system: BT-549 breast
T-47D breast = system: T-47D breast
MDA-MB-231 breast = system: MDA-MB-231 breast
HCC-2998 colon = system: HCC-2998 colon
SK-MEL-2 melanoma = system: SK-MEL-2 melanoma
U251 CNS = system: U251 CNS
HS 578T breast = system: HS 578T breast
NCI-H23 lung = system: NCI-H23 lung
UACC-62 melanoma = system: UACC-62 melanoma
SF-539 CNS = system: SF-539 CNS
786-0 renal = system: 786-0 renal
MOLT-4 leukemia = system: MOLT-4 leukemia
MALME-3M melanoma = system: MALME-3M melanoma
CCRF-CEM leukemia = system: CCRF-CEM leukemia
ACHN renal = system: ACHN renal
HCT-116 colon = system: HCT-116 colon
A498 renal = system: A498 renal
DU-145 prostate = system: DU-145 prostate
NCI-H460 lung = system: NCI-H460 lung
HCT-15 colon = system: HCT-15 colon
SN12C renal = system: SN12C renal
NCI-H522 lung = system: NCI-H522 lung
TK-10 renal = system: TK-10 renal
K-562 leukemia = system: K-562 leukemia
SK-MEL-28 melanoma = system: SK-MEL-28 melanoma
PC-3 prostate = system: PC-3 prostate
HL-60(TB) leukemia = system: HL-60(TB) leukemia
RPMI-8226 leukemia = system: RPMI-8226 leukemia
RXF 393 renal = system: RXF 393 renal
SF-268 CNS = system: SF-268 CNS
OVCAR-5 ovarian = system: OVCAR-5 ovarian
M14 melanoma = system: M14 melanoma
NCI/ADR-RES ovarian = system: NCI/ADR-RES ovarian
SNB-19 CNS = system: SNB-19 CNS
KM12 colon = system: KM12 colon
HOP-92 NSCLC = system: HOP-92 NSCLC
COLO 205 colon = system: COLO 205 colon
HOP-62 NSCLC = system: HOP-62 NSCLC
CAKI-1 renal = system: CAKI-1 renal
SK-MEL-5 melanoma = system: SK-MEL-5 melanoma
A549 NSCLC = system: A549 NSCLC
MDA-MB-435 = system: MDA-MB-435

## C1=C/COCc2cc(ccc2OCCN2CCCC2)Nc2nccc(n2)-c2cccc(c2)COC/1
SNB-75 CNS
  GI50: 1.08 µM and 1.14 µM
  TGI: 2.44 µM and 2.6 µM
MCF7 breast
  GI50: 0.353 µM
  TGI: 1.54 µM
OVCAR-3 ovarian
  GI50: 0.849 µM and 1.31 µM
  TGI: 2.85 µM and 2.89 µM
HT29 colon
  GI50: 0.481 µM and 0.542 µM
  TGI: 2.45 µM and 2.64 µM
IGROV1 ovarian
  GI50: 0.498 µM and 0.552 µM
  TGI: 3.02 µM and 3.55 µM
UACC-257 melanoma
  GI50: 1.65 µM and 1.48 µM
  TGI: 3.25 µM and 2.99 µM
SK-OV-3 ovarian
  GI50: 1.45 µM and 1.19 µM
  TGI: 3.28 µM and 2.58 µM
LOX IMVI melanoma
  GI50: 0.37 µM and 0.58 µM
  TGI: 1.58 µM and 2.17 µM
OVCAR-4 ovarian
  GI50: 1.55 µM and 1.37 µM
  TGI: 4.51 µM and 3.21 µM
SF-295 CNS
  GI50: 1.58 µM and 1.98 µM
  TGI: 3.34 µM and 4.29 µM
UO-31 renal
  GI50: 0.366 µM and 0.758 µM
  TGI: 2.02 µM and 3.2 µM
SW-620 colon
  GI50: 0.489 µM and 0.927 µM
  TGI: 2.59 µM and 3.69 µM
OVCAR-8 ovarian
  GI50: 1.28 µM and 1.84 µM
  TGI: 4.31 µM and 8.03 µM
NCI-H226 lung
  GI50: 0.376 µM and 1.28 µM
  TGI: 1.82 µM and 2.73 µM
EKVX NSCLC
  GI50: 1.72 µM and 1.76 µM
  TGI: 8.83 µM and 5.74 µM
BT-549 breast
  GI50: 2.15 µM and 2.3 µM
  TGI: 5.02 µM and 4.87 µM
T-47D breast
  GI50: 0.509 µM and 0.949 µM
  TGI: 3.03 µM and 3.78 µM
MDA-MB-231 breast
  GI50: 1.17 µM and 0.798 µM
  TGI: 3.13 µM and 2.92 µM
HCC-2998 colon
  GI50: 1.18 µM and 1.28 µM
  TGI: 3.19 µM and 3.1 µM
SK-MEL-2 melanoma
  GI50: 1.55 µM and 1.43 µM
  TGI: 3.57 µM and 3.22 µM
U251 CNS
  GI50: 1.12 µM and 1.27 µM
  TGI: 2.63 µM and 3.14 µM
HS 578T breast
  GI50: 1.29 µM and 1.68 µM
  TGI: 4.47 µM and 5.56 µM
NCI-H23 lung
  GI50: 0.628 µM and 1.14 µM
  TGI: 2.36 µM and 3.21 µM
UACC-62 melanoma
  GI50: 0.641 µM and 1.3 µM
  TGI: 2.12 µM and 2.73 µM
SF-539 CNS
  GI50: 1.47 µM and 1.8 µM
  TGI: 3 µM and 3.32 µM
786-0 renal
  GI50: 1.28 µM and 1.4 µM
  TGI: 3.14 µM and 2.88 µM
MOLT-4 leukemia
  GI50: 0.369 µM and 0.689 µM
  TGI: 2.54 µM and 4.09 µM
MALME-3M melanoma
  GI50: 0.68 µM and 1.21 µM
  TGI: 2.19 µM and 2.89 µM
CCRF-CEM leukemia
  GI50: 0.652 µM and 1.08 µM
  TGI: 11.5 µM and 6.62 µM
ACHN renal
  GI50: 0.394 µM and 0.486 µM
  TGI: 2.76 µM and 3.68 µM
HCT-116 colon
  GI50: 0.457 µM and 0.498 µM
  TGI: 2.39 µM and 1.78 µM
A498 renal
  GI50: 1.25 µM and 1.31 µM
  TGI: 2.7 µM and 3.98 µM
DU-145 prostate
  GI50: 0.433 µM and 0.749 µM
  TGI: 11.2 µM and 3.66 µM
NCI-H460 lung
  GI50: 0.847 µM and 1.08 µM
  TGI: 2.75 µM and 3.06 µM
HCT-15 colon
  GI50: 0.35 µM and 0.558 µM
  TGI: 2.3 µM and 6.84 µM
SN12C renal
  GI50: 0.587 µM and 0.586 µM
  TGI: 2.62 µM and 2.94 µM
NCI-H522 lung
  GI50: 1.75 µM and 1.44 µM
  TGI: 3.75 µM and 3.4 µM
TK-10 renal
  GI50: 1.58 µM and 1.09 µM
  TGI: 3.67 µM and 3.84 µM
K-562 leukemia
  GI50: 0.639 µM and 1.18 µM
  TGI: 4.05 µM and 4.51 µM
SK-MEL-28 melanoma
  GI50: 1.29 µM and 1.15 µM
  TGI: 2.86 µM and 2.43 µM
PC-3 prostate
  GI50: 0.62 µM and 1.01 µM
  TGI: 3.17 µM and 3.93 µM
HL-60(TB) leukemia
  GI50: 0.181 µM and 0.522 µM
  TGI: 0.887 µM and 2.15 µM
RPMI-8226 leukemia
  GI50: 1.37 µM and 1.91 µM
  TGI: 4.64 µM and 5.84 µM
RXF 393 renal
  GI50: 0.278 µM and 0.339 µM
  TGI: 0.784 µM and 1.12 µM
SF-268 CNS
  GI50: 0.648 µM and 1.05 µM
  TGI: 2.56 µM and 2.82 µM
OVCAR-5 ovarian
  GI50: 0.356 µM and 0.717 µM
  TGI: 2.36 µM and 2.78 µM
M14 melanoma
  GI50: 0.669 µM and 0.997 µM
  TGI: 2.46 µM and 2.43 µM
NCI/ADR-RES ovarian
  GI50: 1.09 µM and 1.76 µM
  TGI: 4.33 µM and 6.24 µM
SNB-19 CNS
  GI50: 1.34 µM and 1.85 µM
  TGI: 5.6 µM and 8.47 µM
KM12 colon
  GI50: 0.149 µM and 0.224 µM
  TGI: 1.4 µM and 1.57 µM
HOP-92 NSCLC
  GI50: 1.2 µM and 0.624 µM
  TGI: 6.38 µM and 3.15 µM
COLO 205 colon
  GI50: 0.443 µM and 0.643 µM
  TGI: 1.84 µM and 1.85 µM
HOP-62 NSCLC
  GI50: 1.11 µM and 1.36 µM
  TGI: 4.39 µM and 3.23 µM
CAKI-1 renal
  GI50: 0.443 µM and 0.463 µM
  TGI: 2.04 µM and 2.25 µM
SK-MEL-5 melanoma
  GI50: 0.672 µM
  TGI: 1.82 µM
A549 NSCLC
  GI50: 1.06 µM and 1.14 µM
  TGI: 3 µM and 3.38 µM
MDA-MB-435
  GI50: 0.582 µM
  TGI: 1.99 µM and 2.03 µM
